Details: 101.33 kPa, Liquid; for mass density: Vibrating tube method

CC/C=C\C/C=C\C/C=C\CCCCCCCC(=O)OCC [ethyl 9,12,15-octadecatrienoate]
Details	mass density [kg/m3]	viscosity [mPa·s]
278.15 K	904.6	6.282
283.15 K	900.8	5.538
288.15 K	897	4.921
293.15 K	893.3	4.401
298.15 K	889.5	3.961
303.15 K	885.8	3.583
308.15 K	882	3.258
313.15 K	878.3	2.975
318.15 K	874.6	2.728
323.15 K	870.9	2.511
328.15 K	867.2	2.32
333.15 K	863.5	2.151
338.15 K	859.9	2
343.15 K	856.2	1.866
348.15 K	852.5	1.745
353.15 K	848.9	1.636
358.15 K	845.3	1.538
363.15 K	841.6	1.449
368.15 K	838	1.368
373.15 K	834.5	1.295

CCCCCCCCCCCCCCCCCCCC(=O)OCC [ethyl eicosanoate]
Details	mass density [kg/m3]	viscosity [mPa·s]
318.15 K	841.2	5.657
323.15 K	837.7	4.973
328.15 K	834.1	4.507
333.15 K	830.5	4.058
338.15 K	827	3.671
343.15 K	823.5	3.337
348.15 K	820	3.046
353.15 K	816.6	2.78
358.15 K	813.2	2.569
363.15 K	809.7	2.372
368.15 K	806.1	2.196
373.15 K	802.4	2.039

CCCCC/C=C\C/C=C\CCCCCCCC(=O)OCC [ethyl linoleate]
Details	mass density [kg/m3]	viscosity [mPa·s]
278.15 K	893.8	8.188
283.15 K	890	7.084
288.15 K	886.3	6.165
293.15 K	882.6	5.423
298.15 K	878.8	4.807
303.15 K	875.2	4.307
308.15 K	871.5	3.854
313.15 K	867.8	3.406
318.15 K	864.2	3.161
323.15 K	860.6	2.829
328.15 K	856.9	2.641
333.15 K	853.3	2.429
338.15 K	849.7	2.241
343.15 K	846	2.075
348.15 K	842.4	1.927
353.15 K	838.8	1.773
358.15 K	835.2	1.676
363.15 K	831.6	1.569

CCCCCC/C=C\CCCCCCCC(=O)OC [methyl (Z)-9-hexadecenoate]
Details	mass density [kg/m3]	viscosity [mPa·s]
278.15 K	880.4	6.169
283.15 K	876.6	5.367
288.15 K	872.8	4.662
293.15 K	869	4.107
298.15 K	865.2	3.647
303.15 K	861.4	3.289
308.15 K	857.6	2.943
313.15 K	853.8	2.616
318.15 K	850	2.422
323.15 K	846.3	2.175
328.15 K	842.5	2.03
333.15 K	838.7	1.87
338.15 K	834.9	1.728
343.15 K	831.1	1.595
348.15 K	827.3	1.482
353.15 K	823.5	1.366
358.15 K	819.8	1.29
363.15 K	816	1.207
